Assay results published in PubChem BioAssay AID504400 (The Scripps Research Institute Molecular Screening Center, 2011).
Activity calls are given as the source filed them. How the calls were made is not given here.

Tests used:
Assay in all cases: CYP450 and receptor off-target profile – biochemical, Ricerca HitProfilingScreen, selectivity assay for S1P4 agonist project, late-stage follow-up (AID 504400)
[1] = molecular target: 5-hydroxytryptamine receptor 2B (Homo sapiens) (UniProt P41595); conditions: Ricerca radioligand binding/enzyme panel plus CYP450; Serotonin (5-Hydroxytryptamine) 5-HT2B; at 10 µM; active compounds read high
Sequence of 5-hydroxytryptamine receptor 2B (Homo sapiens) (P41595 whole entry, looked up): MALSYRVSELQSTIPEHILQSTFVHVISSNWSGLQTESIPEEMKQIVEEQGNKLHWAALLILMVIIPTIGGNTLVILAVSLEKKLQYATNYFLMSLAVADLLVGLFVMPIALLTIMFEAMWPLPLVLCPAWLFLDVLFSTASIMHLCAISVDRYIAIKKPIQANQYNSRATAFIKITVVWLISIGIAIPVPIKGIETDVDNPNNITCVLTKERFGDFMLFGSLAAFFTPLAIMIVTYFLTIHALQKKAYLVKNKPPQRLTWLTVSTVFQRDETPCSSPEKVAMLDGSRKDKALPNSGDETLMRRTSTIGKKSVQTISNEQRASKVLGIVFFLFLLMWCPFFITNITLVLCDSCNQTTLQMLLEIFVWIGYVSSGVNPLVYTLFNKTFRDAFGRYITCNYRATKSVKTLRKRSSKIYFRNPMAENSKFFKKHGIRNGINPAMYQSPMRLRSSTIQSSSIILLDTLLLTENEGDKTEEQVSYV

[2] = molecular target: D(1A) dopamine receptor (Homo sapiens) (UniProt P21728); conditions: Ricerca radioligand binding/enzyme panel plus CYP450; Dopamine D1; at 10 µM; active compounds read high
Sequence of D(1A) dopamine receptor (Homo sapiens) (P21728 whole entry, looked up): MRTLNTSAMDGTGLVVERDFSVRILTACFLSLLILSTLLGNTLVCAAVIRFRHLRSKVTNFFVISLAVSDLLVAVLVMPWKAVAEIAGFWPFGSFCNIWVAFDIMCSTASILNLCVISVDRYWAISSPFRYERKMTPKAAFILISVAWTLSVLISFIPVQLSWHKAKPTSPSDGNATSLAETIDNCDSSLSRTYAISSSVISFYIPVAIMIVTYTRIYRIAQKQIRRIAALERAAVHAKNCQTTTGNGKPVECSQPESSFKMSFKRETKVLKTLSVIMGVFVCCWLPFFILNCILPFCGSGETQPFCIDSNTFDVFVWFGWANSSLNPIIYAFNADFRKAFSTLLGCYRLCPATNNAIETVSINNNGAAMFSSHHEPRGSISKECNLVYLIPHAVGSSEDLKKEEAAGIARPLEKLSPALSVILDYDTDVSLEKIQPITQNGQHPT

Adrenergic alpha1A = conditions: Ricerca radioligand binding/enzyme panel plus CYP450, at 10 µM, active compounds read high
[3] = molecular target: Cytochrome P450 2C9 (Homo sapiens) (UniProt P11712); conditions: Ricerca radioligand binding/enzyme panel plus CYP450; CYP450, 2C9; at 10 µM; active compounds read high
Sequence of Cytochrome P450 2C9 (Homo sapiens) (P11712 whole entry, looked up): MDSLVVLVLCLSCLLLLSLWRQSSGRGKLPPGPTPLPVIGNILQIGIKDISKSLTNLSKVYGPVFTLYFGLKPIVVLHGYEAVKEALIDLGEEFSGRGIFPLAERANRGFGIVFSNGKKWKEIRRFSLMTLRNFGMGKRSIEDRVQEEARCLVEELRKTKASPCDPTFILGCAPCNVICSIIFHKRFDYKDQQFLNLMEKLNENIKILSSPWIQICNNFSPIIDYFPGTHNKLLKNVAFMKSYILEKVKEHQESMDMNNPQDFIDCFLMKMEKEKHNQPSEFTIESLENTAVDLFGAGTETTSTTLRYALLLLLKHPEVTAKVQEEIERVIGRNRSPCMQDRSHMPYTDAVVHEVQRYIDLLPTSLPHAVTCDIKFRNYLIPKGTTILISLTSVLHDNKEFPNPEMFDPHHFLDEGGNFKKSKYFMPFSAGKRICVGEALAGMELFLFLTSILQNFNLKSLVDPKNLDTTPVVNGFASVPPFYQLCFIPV

[4] = test system: Transporter, Norepinephrine (NET); conditions: Ricerca radioligand binding/enzyme panel plus CYP450, at 10 µM, active compounds read high
Nicotinic Acetylcholine = conditions: Ricerca radioligand binding/enzyme panel plus CYP450, at 10 µM, active compounds read high
[5] = molecular target: Cytochrome P450 3A4 (Homo sapiens) (UniProt P08684); conditions: Ricerca radioligand binding/enzyme panel plus CYP450; CYP450, 3A4; at 10 µM; active compounds read high
Sequence of Cytochrome P450 3A4 (Homo sapiens) (P08684 whole entry, looked up): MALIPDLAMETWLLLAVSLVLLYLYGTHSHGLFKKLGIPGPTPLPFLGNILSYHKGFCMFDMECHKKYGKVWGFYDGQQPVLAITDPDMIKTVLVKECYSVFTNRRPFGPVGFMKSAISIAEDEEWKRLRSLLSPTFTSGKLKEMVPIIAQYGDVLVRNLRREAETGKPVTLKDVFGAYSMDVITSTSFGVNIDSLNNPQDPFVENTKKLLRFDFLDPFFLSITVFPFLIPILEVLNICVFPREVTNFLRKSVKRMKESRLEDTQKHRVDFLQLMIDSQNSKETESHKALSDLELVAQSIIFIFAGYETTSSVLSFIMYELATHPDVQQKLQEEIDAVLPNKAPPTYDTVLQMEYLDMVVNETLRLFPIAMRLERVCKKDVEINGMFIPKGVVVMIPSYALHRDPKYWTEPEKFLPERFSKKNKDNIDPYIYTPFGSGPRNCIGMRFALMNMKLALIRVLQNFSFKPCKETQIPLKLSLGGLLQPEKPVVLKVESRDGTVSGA

[6] = molecular target: Voltage-gated inwardly rectifying potassium channel KCNH2 (Homo sapiens) (UniProt Q12809); conditions: Ricerca radioligand binding/enzyme panel plus CYP450; Potassium Channel hERG; at 10 µM; active compounds read high
[7] = molecular target: Beta-2 adrenergic receptor (Homo sapiens) (UniProt P07550); conditions: Ricerca radioligand binding/enzyme panel plus CYP450; Adrenergic beta2; at 10 µM; active compounds read high
Sequence of Beta-2 adrenergic receptor (Homo sapiens) (P07550 whole entry, looked up): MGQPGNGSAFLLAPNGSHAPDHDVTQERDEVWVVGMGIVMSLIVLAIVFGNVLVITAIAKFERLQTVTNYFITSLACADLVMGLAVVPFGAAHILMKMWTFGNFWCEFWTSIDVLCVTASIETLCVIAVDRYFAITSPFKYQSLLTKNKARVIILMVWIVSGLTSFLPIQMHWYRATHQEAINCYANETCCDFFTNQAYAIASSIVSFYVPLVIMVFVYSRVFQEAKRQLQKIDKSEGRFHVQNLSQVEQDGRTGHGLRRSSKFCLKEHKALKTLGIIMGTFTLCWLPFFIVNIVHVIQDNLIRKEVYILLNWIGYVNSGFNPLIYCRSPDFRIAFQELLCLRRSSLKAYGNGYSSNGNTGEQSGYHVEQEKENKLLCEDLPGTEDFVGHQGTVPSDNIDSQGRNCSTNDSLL

GABAA = conditions: Central, at 10 µM, active compounds read high
Adenosine A1 = conditions: Ricerca radioligand binding/enzyme panel plus CYP450, at 10 µM, active compounds read high
CYP450, 2C19 = conditions: Ricerca radioligand binding/enzyme panel plus CYP450, at 10 µM, active compounds read high
[8] = molecular target: Cytochrome P450 1A2 (Homo sapiens) (UniProt P05177); conditions: Ricerca radioligand binding/enzyme panel plus CYP450; CYP450, 1A2; at 10 µM; active compounds read high
Sequence of Cytochrome P450 1A2 (Homo sapiens) (P05177 whole entry, looked up): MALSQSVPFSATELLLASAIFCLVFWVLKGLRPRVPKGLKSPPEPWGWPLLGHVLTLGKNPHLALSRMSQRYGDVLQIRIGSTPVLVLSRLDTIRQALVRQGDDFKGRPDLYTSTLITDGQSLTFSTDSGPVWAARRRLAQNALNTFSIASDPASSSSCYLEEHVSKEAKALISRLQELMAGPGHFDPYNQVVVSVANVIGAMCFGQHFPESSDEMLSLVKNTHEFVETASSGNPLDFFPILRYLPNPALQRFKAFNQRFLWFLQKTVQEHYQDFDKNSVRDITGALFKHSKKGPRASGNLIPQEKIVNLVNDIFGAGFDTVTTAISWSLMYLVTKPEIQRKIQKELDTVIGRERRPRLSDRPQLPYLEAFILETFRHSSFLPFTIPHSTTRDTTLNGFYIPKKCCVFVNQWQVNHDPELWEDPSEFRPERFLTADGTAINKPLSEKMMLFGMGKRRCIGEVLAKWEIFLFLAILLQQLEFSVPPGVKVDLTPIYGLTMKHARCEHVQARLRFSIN

[9] = molecular target: Muscarinic acetylcholine receptor M3 (Homo sapiens) (UniProt P20309); conditions: Ricerca radioligand binding/enzyme panel plus CYP450, at 10 µM, active compounds read high
Sequence of Muscarinic acetylcholine receptor M3 (Homo sapiens) (P20309 whole entry, looked up): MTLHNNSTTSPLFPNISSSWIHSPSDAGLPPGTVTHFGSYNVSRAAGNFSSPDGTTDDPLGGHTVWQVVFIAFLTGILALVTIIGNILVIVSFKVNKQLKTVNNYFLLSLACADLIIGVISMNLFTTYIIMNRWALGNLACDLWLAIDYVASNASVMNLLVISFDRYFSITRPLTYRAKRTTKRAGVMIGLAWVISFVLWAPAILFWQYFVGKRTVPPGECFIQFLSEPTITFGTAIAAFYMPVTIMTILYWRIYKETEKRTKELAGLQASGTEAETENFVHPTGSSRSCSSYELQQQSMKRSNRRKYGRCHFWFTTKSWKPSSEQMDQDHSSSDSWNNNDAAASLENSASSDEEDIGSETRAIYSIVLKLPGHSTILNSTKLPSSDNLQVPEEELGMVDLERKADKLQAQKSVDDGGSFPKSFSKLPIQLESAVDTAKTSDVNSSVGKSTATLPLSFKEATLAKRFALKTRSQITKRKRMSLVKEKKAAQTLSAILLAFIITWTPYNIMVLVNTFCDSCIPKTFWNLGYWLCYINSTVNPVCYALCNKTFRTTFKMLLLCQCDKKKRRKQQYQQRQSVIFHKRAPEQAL

[10] = molecular target: Alpha-2A adrenergic receptor (Homo sapiens) (UniProt P08913); conditions: Ricerca radioligand binding/enzyme panel plus CYP450; Adrenergic alpha2A; at 10 µM; active compounds read high
Sequence of Alpha-2A adrenergic receptor (Homo sapiens) (P08913 whole entry, looked up): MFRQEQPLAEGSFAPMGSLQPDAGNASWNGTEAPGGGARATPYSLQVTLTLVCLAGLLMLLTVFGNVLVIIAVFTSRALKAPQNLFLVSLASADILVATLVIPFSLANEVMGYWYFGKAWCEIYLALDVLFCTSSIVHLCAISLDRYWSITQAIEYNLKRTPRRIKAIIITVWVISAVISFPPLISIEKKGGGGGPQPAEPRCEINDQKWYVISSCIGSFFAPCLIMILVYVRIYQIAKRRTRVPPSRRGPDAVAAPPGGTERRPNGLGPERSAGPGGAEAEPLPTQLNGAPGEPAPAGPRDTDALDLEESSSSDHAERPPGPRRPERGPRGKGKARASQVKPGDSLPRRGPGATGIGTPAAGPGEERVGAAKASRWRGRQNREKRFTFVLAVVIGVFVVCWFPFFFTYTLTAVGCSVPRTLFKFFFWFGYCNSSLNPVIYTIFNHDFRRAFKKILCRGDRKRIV

Glutamate NMDA = conditions: Ricerca radioligand binding/enzyme panel plus CYP450, Phencyclidine, at 10 µM, active compounds read high
Sigma 1 = conditions: Ricerca radioligand binding/enzyme panel plus CYP450, at 10 µM, active compounds read high
Opiate mu (OP3, MOP) = conditions: Ricerca radioligand binding/enzyme panel plus CYP450, at 10 µM, active compounds read high
Cannabinoid CB1 = conditions: Ricerca radioligand binding/enzyme panel plus CYP450, at 10 µM, active compounds read high
Histamine H1 = conditions: Ricerca radioligand binding/enzyme panel plus CYP450, at 10 µM, active compounds read high
Adenosine A2A = conditions: Ricerca radioligand binding/enzyme panel plus CYP450, at 10 µM, active compounds read high
Adrenergic beta1 = conditions: Ricerca radioligand binding/enzyme panel plus CYP450, at 10 µM, active compounds read high
[11] = molecular target: Cytochrome P450 2D6 (Homo sapiens) (UniProt P10635); conditions: Ricerca radioligand binding/enzyme panel plus CYP450; CYP450, 2D6; at 10 µM; active compounds read high
Sequence of Cytochrome P450 2D6 (Homo sapiens) (P10635 whole entry, looked up): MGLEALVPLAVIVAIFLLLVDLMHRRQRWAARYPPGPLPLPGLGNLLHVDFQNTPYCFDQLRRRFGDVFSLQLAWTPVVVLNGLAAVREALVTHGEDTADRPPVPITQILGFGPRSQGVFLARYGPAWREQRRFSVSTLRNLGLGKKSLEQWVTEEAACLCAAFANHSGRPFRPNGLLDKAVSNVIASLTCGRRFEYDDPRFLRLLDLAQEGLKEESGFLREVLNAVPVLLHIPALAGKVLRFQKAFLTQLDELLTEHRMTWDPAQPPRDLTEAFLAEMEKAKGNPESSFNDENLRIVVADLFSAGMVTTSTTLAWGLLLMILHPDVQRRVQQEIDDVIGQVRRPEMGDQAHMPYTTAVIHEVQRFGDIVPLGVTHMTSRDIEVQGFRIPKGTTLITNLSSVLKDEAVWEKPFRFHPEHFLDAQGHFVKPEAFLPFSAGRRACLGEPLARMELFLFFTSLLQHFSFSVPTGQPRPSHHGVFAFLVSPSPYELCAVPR

[12] = molecular target: Muscarinic acetylcholine receptor M2 (Homo sapiens) (UniProt P08172); conditions: Ricerca radioligand binding/enzyme panel plus CYP450, at 10 µM, active compounds read high
Sequence of Muscarinic acetylcholine receptor M2 (Homo sapiens) (P08172 whole entry, looked up): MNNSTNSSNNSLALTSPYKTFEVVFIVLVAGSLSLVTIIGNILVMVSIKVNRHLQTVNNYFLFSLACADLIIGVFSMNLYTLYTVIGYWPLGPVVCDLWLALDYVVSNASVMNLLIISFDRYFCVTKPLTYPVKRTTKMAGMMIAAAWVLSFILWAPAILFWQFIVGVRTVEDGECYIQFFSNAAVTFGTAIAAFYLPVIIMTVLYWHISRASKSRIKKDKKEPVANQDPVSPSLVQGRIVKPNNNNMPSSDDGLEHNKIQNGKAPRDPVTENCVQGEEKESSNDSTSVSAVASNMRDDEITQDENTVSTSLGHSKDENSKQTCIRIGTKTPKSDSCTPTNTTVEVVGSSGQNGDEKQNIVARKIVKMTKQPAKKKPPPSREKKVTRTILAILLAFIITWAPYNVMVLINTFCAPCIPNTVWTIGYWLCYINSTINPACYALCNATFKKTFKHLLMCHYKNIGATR

Dopamine D2S = conditions: Ricerca radioligand binding/enzyme panel plus CYP450, at 10 µM, active compounds read high
Calcium Channel L-Type = conditions: Ricerca radioligand binding/enzyme panel plus CYP450, Dihydropyridine, at 10 µM, active compounds read high
Adrenergic alpha1B = conditions: Ricerca radioligand binding/enzyme panel plus CYP450, at 10 µM, active compounds read high
[13] = test system: Alpha-2A adrenergic receptor (Homo sapiens) + Histamine H1 receptor (Homo sapiens) + Mu-type opioid receptor (Homo sapiens); conditions: Ricerca radioligand binding/enzyme panel plus CYP450; at 10 µM; active compounds read high
Sodium Channel, Site 2 = conditions: Ricerca radioligand binding/enzyme panel plus CYP450, at 10 µM, active compounds read high
Prostanoid EP4 = conditions: Ricerca radioligand binding/enzyme panel plus CYP450, at 10 µM, active compounds read high

With Clc1ccc(OCCOc2ccc(Br)nc2Br)c(Cl)c1 as the compound, how does the inhibition [1] read?
The inhibition was 27% (inactive).

What about the inhibition [2] of the same compound?
Its inhibition is 18% (inactive).

And the inhibition (Adrenergic alpha1A)?
Its inhibition is 28% (inactive).

What about the inhibition [3] of the same compound?
The inhibition was 3% (inactive).

What about the inhibition [4] of the same compound?
Its inhibition is 68%.

What about the inhibition (Nicotinic Acetylcholine) of the same compound?
The inhibition was -4% (inactive).

And the inhibition [5]?
Its inhibition is -5% (inactive).

And the inhibition [6]?
The inhibition was -1% (inactive).

And the inhibition [7]?
The inhibition was 7% (inactive).

What about the inhibition (GABAA; Ricerca radioligand binding/enzyme panel plus CYP450, Flunitrazepam) of the same compound?
The inhibition was 2% (inactive).

And the inhibition (GABAA; Ricerca radioligand binding/enzyme panel plus CYP450, Muscimol)?
The inhibition was 1% (inactive).

And the inhibition (Adenosine A1)?
Its inhibition is 7% (inactive).

What about the inhibition (CYP450, 2C19) of the same compound?
Its inhibition is 97%.

And the inhibition [8]?
Its inhibition is 58%.

And the inhibition [9]?
Its inhibition is -3% (inactive).

What about the inhibition [10] of the same compound?
The inhibition was 9% (inactive).

What about the inhibition (Glutamate NMDA) of the same compound?
Its inhibition is -5% (inactive).

What about the inhibition (Sigma 1) of the same compound?
Its inhibition is 22% (inactive).

And the inhibition (Opiate mu (OP3, MOP))?
The inhibition was 9% (inactive).

What about the inhibition (Cannabinoid CB1) of the same compound?
Its inhibition is 31% (inactive).

What about the inhibition (Histamine H1) of the same compound?
The inhibition was 15% (inactive).

What about the inhibition (Adenosine A2A) of the same compound?
The inhibition was 10% (inactive).

And the inhibition (Adrenergic beta1)?
The inhibition was 12% (inactive).

What about the inhibition [11] of the same compound?
Its inhibition is 2% (inactive).

What about the inhibition [12] of the same compound?
The inhibition was 2% (inactive).

What about the inhibition (Dopamine D2S) of the same compound?
Its inhibition is 25% (inactive).

What about the inhibition (Calcium Channel L-Type) of the same compound?
Its inhibition is 51%.

What about the inhibition (Adrenergic alpha1B) of the same compound?
The inhibition was 26% (inactive).

And the inhibition [13]?
The inhibition was 0% (inactive).

What about the inhibition (Sodium Channel, Site 2) of the same compound?
The inhibition was 32% (inactive).

What about the inhibition (Prostanoid EP4) of the same compound?
Its inhibition is -7% (inactive).
